Assay results: ChEMBL document CHEMBL3600356, “Optimization of permethyl ningalin B analogs as P-glycoprotein inhibitors” (Bioorg Med Chem, 2015)
≈ marks a conversion by molar mass, not a printed value.

How the values were obtained:
Homo sapiens = organism: Homo sapiens; assay: Modulation of p-glycoprotein in human MDA435/LCC6MDR cells assessed as ratio of IC50 for paclitaxel in absence of drug to IC50 for paclitaxel in presence of 1 uM of drug after 5 days by MTS assay; type: cell-based
[1] = Cytotoxicity against human MDA435/LCC6MDR cells assessed as cell survival at 1 uM after 3 days by MTS/PMS assay; type: ADME, cell-based; details: 72 h
[2] = Cytotoxicity against human MDA435/LCC6 cells assessed as cell survival at 1 uM after 3 days by MTS/PMS assay; type: cell-based; details: mda-435/lcc6, 72 h
[3] = Solubility of the compound in phosphate buffer at pH 7.4 by capillary electrophoresis system; type: physicochemical

Row | solubility [3] [µg/mL] | Structure (SMILES) | Ratio IC50 (Homo sapiens) | Activity [1] | Activity [2]
1 | – | COc1ccc(C2=C(c3ccc(OC)c(OC)c3)C(=O)N(C(=O)N3CCN(CC(=O)c4ccc(S(C)(=O)=O)cc4)CC3)C2=O)cc1OC | 1 | Non-toxic | Non-toxic
2 | – | COc1ccc(C2=C(c3ccc(OC)c(OC)c3)C(=O)N(C(=O)N3CCN(CC(=O)c4ccc(OCc5ccccc5)c(OC)c4)CC3)C2=O)cc1OC | 5.4 | Non-toxic | Non-toxic
3 | – | CCCCC1OC(=O)c2cc(NC(=O)N3C(=O)C(c4ccc(OC)c(OC)c4)=C(c4ccc(OC)c(OC)c4)C3=O)ccc21 (stereo not drawn) | 2.4 | Non-toxic | Non-toxic
4 | 0.405 (≈ 0.664 µM) | COc1ccc(C2=C(c3ccc(OC)c(OC)c3)C(=O)N(C(=O)c3ccc(OCc4ccccc4)c(OC)c3)C2=O)cc1OC | – | Non-toxic | Non-toxic
5 | – | COc1ccc(C2=C(c3ccc(OC)c(OC)c3)C(=O)N(C(=O)Nc3ccc4c(c3)C(=O)OC4)C2=O)cc1OC | 1.1 | Non-toxic | Non-toxic
6 | – | COc1ccc(C2=C(c3ccc(OC)c(OC)c3)C(=O)N(CC(=O)c3cc(Br)c(OCc4ccccc4)cc3OCCO)C2=O)cc1OC | 21.4 | Non-toxic | Non-toxic
